Reference: publication PMC12181400, “Leveraging viral genome sequences and machine learning models for identification of potentially selective antiviral agents” (Communications Chemistry, 2025)
Counter-ions that a name gives are not always drawn. Like-named read-outs stand apart in the source and are kept apart here.

Experiments:
[1] = test system: SARS-CoV-2 Spike protein containing PPs, entry into HEK293-ACE2 cells; test: microbe, parasite or virus in culture; assay type: cell-based; conditions: PP entry, HEK293-ACE2, 48 h, mean ± SD of two independent experiments; for IC50: Severe acute respiratory syndrome coronavirus 2, 11 concentrations
[2] = test system: wild-type (WT) and drug-resistant HIV-1 isolates; parameters: method as in pmid 18043758; conditions: multiple wild-type and drug-resistant HIV-1 isolates; ref pmid 18043758; cited from earlier work
IN = test system: IN; parameters: method as in pmid 19265512; conditions: in vitro strand transfer assay; ref pmid 19265512; read-out: IC50, inhibition of IN; cited from earlier work
MT-4 cells = test system: MT-4 cells; parameters: method as in pmid 19265512; conditions: MT-4 cells in the presence of 20% NHS; ref pmid 19265512; read-out: antiviral EC90; cited from earlier work
[3] = test system: cell viability (tox21-ap1-agonist-p1); conditions: cited from earlier work
[4] = test system: cell viability (tox21-ar-mda-kb2-luc-agonist-p3); conditions: cited from earlier work
[5] = test system: cell viability (tox21-ar-mda-kb2-luc-antagonist-p2); conditions: cited from earlier work
[6] = test system: cell viability (tox21-are-bla-p1); conditions: cited from earlier work
[7] = test system: cell viability (tox21-car-agonist-p1); conditions: cited from earlier work
[8] = test system: cell viability (tox21-car-antagonist-p1); conditions: cited from earlier work
[9] = test system: hepatitis B surface antigen (HBsAg) secretion; parameters: method as in PMID 17723297; conditions: Hep G2.2.15 cell line; read-out: IC50, inhibition of HBsAg secretion; cited from earlier work
[10] = curve rank −9 to 9, 0 = inactive, ref NCATS Tox21 public data browser

Compound	efficacy [1] [%]	IC50 [1] [nM]	tox21-ap1-agonist-p1-viability (curve rank) [3]	tox21-ar-mda-kb2-luc-agonist-p3-viability (curve rank) [4]	tox21-ar-mda-kb2-luc-antagonist-p2-viability (curve rank) [5]	tox21-are-bla-p1-viability (curve rank) [6]	tox21-car-agonist-p1-viability (curve rank) [7]	tox21-car-antagonist-p1-viability (curve rank) [8]	further results
O=C(Nc1nc(-c2ccc(F)cc2)cs1)c1c(F)cccc1F [NCGC00633127]	−67.42 ± 5.30	4590 ± 370							
COc1ccc(-c2nc3ccccc3n2Cc2ccccc2)cc1COc1ccc(NC(C)=O)cc1 [NCGC00166392]	−83.25 ± 8.42	1370							
C=C(C)[C@@H]1CC[C@]2(C(=O)O)CC[C@]3(C)[C@H](CC[C@@H]4[C@@]5(C)CC[C@H](OC(=O)CC(C)(C)C(=O)O)C(C)(C)[C@@H]5CC[C@]43C)[C@@H]12 [bevirimat, 3-O-(3',3'-dimethylsuccinyl) betulinic acid]									in vitro antiviral activity [2]: 10 nM
Cn1c(=O)c(C(=O)NCCO)c(O)c2ncc(Cc3ccc(F)cc3)cc21 [GSK-364735]									IC50 (IN): 8 nM; EC90 (MT-4 cells): 40 nM
N=c1ccn(C2OC(COP(=O)(O)O)C(O)C2O)c(=O)[nH]1 (centres unmarked) [NCGC00014029]	−76.63 ± 14.92	1310 ± 320							
COc1ccc(C(CNC(=O)c2ccc3ccccc3n2)N2CCCC2)cc1 (centres unmarked) [NCGC00622469]	−64.06 ± 9.68	5910 ± 7000							
CC(=O)Nc1cc([As](=O)(O)O)ccc1O [Acetarsol]									tox21-ap1-agonist-p1-viability (curve rank) [3, 10]: 0; tox21-ar-mda-kb2-luc-agonist-p3-viability (curve rank) [4, 10]: 0; tox21-ar-mda-kb2-luc-antagonist-p2-viability (curve rank) [5, 10]: 0; tox21-are-bla-p1-viability (curve rank) [6, 10]: 0; tox21-car-agonist-p1-viability (curve rank) [7, 10]: 0; tox21-car-antagonist-p1-viability (curve rank) [8, 10]: 0
Cc1cc(CC(=O)[O-])n(C)c1C(=O)c1ccc(Cl)cc1.[Na+] [Sodium zomepirac]									tox21-ap1-agonist-p1-viability (curve rank) [3, 10]: 0; tox21-ar-mda-kb2-luc-agonist-p3-viability (curve rank) [4, 10]: 0; tox21-ar-mda-kb2-luc-antagonist-p2-viability (curve rank) [5, 10]: 0; tox21-are-bla-p1-viability (curve rank) [6, 10]: 0; tox21-car-agonist-p1-viability (curve rank) [7, 10]: 0; tox21-car-antagonist-p1-viability (curve rank) [8, 10]: 0
O=C(NCCO[N+](=O)[O-])c1cccnc1 [Nicorandil]			0	0	0	0	0	0	
COc1cc2c3c(c1O)C1(C=CC(=O)C=C1)CC3N(C)CC2 (centres unmarked) [glaziovine]									IC50 [9]: 8000 nM
CN1C(=O)CCS(=O)(=O)C1c1ccc(Cl)cc1 (centres unmarked) [Chlormezanone]									tox21-ap1-agonist-p1-viability (curve rank) [3, 10]: 0; tox21-ar-mda-kb2-luc-agonist-p3-viability (curve rank) [4, 10]: 0; tox21-ar-mda-kb2-luc-antagonist-p2-viability (curve rank) [5, 10]: 0; tox21-are-bla-p1-viability (curve rank) [6, 10]: 0; tox21-car-agonist-p1-viability (curve rank) [7, 10]: 0; tox21-car-antagonist-p1-viability (curve rank) [8, 10]: 0
CO[C@@]1(NC(=O)CSCC#N)C(=O)N2C(C(=O)O)=C(CSc3nnnn3C)CS[C@@H]21 [Cefmetazole sodium]			-0.67	0	0	0	0	0	
COc1ccc(-c2csc3ncnc(N(C)CCO)c23)cc1 [NCGC00608516]	−93.10 ± 32.33	11700 ± 2820							
[H]/N=C(/N)NS(=O)(=O)c1ccc(N)cc1 [Sulfaguanidine]			0	0	0	0	0	0	
CN(C(=O)c1c(O)c2ccccc2n(C)c1=O)c1ccccc1 [Roquinimex]			0	0	0	0	0	0	
c1ccc2c(CC3=NCCN3)cccc2c1 [Naphazoline hydrochloride]			0	0	0	0	0	0	
